Source: patent US8658794B2, “8-methyl-1-phenyl-imidazol[1,5-a]pyrazine compounds as Lck inhibitors and uses thereof” (Merck Sharp & Dohme B.V., priority 2010, dated 2014)

Target: T1, N-terminal His6-tagged recombinant full-length human Lck (Homo sapiens, UniProt P06239)
T1 construct: N-terminal His6-tagged recombinant full-length human Lck; His6 (N); purchased Millipore
Test: Lck IMAP assay
Type: biochemical
Settings: ATP 6 μM (KM,ATP), enzyme pre-incubated with compounds for 60 minutes, values given as bins
Source text: Inhibition of kinase activity can be measured using the Immobilized Metal Assay for Phosphochemicals (IMAP) assay. IMAP is a homogeneous fluorescence polarization (FP) assay based on affinity capture of phosphorylated peptide substrates. IMAP uses fluorescein-labeled peptide substrates that, upon phosphorylation by a protein kinase, bind to so-called IMAP nanoparticles, which are derivatized with trivalent metal complexes. Binding causes a change in the rate of the molecular motion of the peptide, and results in an increase in the FP value observed for the fluorescein label attached to the substrate peptide (Gaudet et al. A homogeneous fluorescence polarization assay adaptable for a range of protein serine/threonine and tyrosine kinases. J. Biomol. Screen (2003) 8, 164-175).
Enzyme used was N-terminal His6-tagged recombinant full-length human Lck from Millipore. Phosphorylation substrate was a fluorescein-labeled peptide (5FAM-KVEKIGEGTYGVV—NH2) derived from p34cdc2 from Molecular Devices. Enzymes, substrate and ATP were diluted in Kinase Reaction buffer (10 mM Tris-HCl, 10 mM MgCl2, 0.01% Tween-20, 0.05% NaN3 pH 7.2, 1 mM DTT (dithiotreitol). The final volume at the kinase reaction step of the assay in the 384-well plate was 20 μl. Final amount of enzyme in the reaction was 0.1 U/ml. Enzyme was pre-incubated with compounds diluted in 1% DMSO (dimethylsulfoxide) for 60 minutes at room temperature in the dark. Subsequently, peptide substrate to a final concentration of 100 nM, and ATP to a final concentration of 6 μM were added and the mix was incubated for 120 minutes at room temperature in the dark. IMAP progressive binding buffer (75% 1× buffer A, 25% 1× buffer B with 1:600 Progressive Binding Reagent; Molecular Devices) was added, followed by an incubation step of 60 minutes at room temperature in the dark. Finally, the FP signal was read on an Envision Multilabel reader (Perkin Elmer).
All biochemical assays were run at KM,ATP of the enzyme using non-saturated conditions, meaning that during the incubation time it was assured that the signal increase was linear with time. For all biochemical assays a reference standard was used on each plate.
Ten point serial dilutions using a √10 dilution factor were used for dose response testing of compounds. Starting concentration was 10^-6M for Lck IMAP assays. Dose-response curves were run as two experiments on duplicate plates (N=1; n=2). All data was normalized to percentage effect based on maximum (Max) and minimum (Min) control values. On every 384 assay plate 16 wells were used as minimum wells (wells with ATP, 0% effect) and 16 wells were used as maximum wells (wells without ATP, 100% effect). 16 wells were used for measuring the background signal, obtained from a kinase reaction containing all constituents except the labeled peptide substrate. Percentage effect was plotted against log dilution concentration of compound to obtain sigmoid dose response curves. pIC50 values were calculated using ActivityBase.

T1 sequence (P06239 whole entry): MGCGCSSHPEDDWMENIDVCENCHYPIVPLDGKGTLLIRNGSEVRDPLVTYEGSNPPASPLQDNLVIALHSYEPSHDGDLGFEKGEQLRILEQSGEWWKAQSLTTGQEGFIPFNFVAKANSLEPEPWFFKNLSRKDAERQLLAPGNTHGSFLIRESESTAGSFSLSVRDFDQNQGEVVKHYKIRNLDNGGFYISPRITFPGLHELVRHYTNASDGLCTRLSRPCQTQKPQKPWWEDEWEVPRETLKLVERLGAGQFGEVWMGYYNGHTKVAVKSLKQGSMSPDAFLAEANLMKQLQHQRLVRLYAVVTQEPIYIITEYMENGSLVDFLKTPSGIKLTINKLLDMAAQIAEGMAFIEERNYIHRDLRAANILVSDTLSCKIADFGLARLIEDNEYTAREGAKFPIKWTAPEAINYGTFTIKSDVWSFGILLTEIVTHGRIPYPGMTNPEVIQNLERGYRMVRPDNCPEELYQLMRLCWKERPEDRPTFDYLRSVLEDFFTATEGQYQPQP

| SMILES | IC50 [nM] |
| --- | --- |
| COc1cc(-c2nc(N3CCN(C)CC3)n3ccnc(C)c23)ccc1NC(=O)c1cc2ccccc2n1C [Example 23, N-(2-methoxy-4-(8-methyl-3-(4-methylpiperazin-1-yl)imidazo[1,5-a]pyrazin-1-yl)phenyl)-1-methyl-1H-indole-2-carboxamide] | ≤ 10 |
| COc1cc(-c2nc(N3CCOCC3)n3ccnc(C)c23)ccc1NC(=O)c1cc2ccccc2n1C [Example 24, N-(2-methoxy-4-(8-methyl-3-(morholin-4-yl)imidazo[1,5-a]pyrazin-1-yl)phenyl)-1-methyl-1H-indole-2-carboxamide] | ≤ 10 |
| COc1cc(-c2nc(N3CCC(N4CCOCC4)CC3)n3ccnc(C)c23)ccc1NC(=O)OC(C)C [Example 25, Isopropyl 2-methoxy-4-(8-methyl-3-(4-morpholinopiperidin-1-yl)imidazo[1,5-a]pyrazin-1-yl)phenylcarbamate] | 10 to 100 |
| CCC[C@H](C)OC(=O)Nc1ccc(-c2nc([C@H]3CC[C@H](N(C)CCOC)CC3)n3ccnc(C)c23)cc1OC [Example 26a, (S)-pentan-2-yl 2-methoxy-4-(3-((trans)-4-((2-methoxyethyl)(methyl)amino)cyclohexyl)-8-methylimidazo[1,5-a]pyrazin-1-yl)phenylcarbamate] | ≤ 10 |
| COc1cc(-c2nc([C@H]3CC[C@H](N(C)C)CC3)n3ccnc(C)c23)ccc1NC(=O)c1cc2c(OC)cccc2n1C [Example 26b, N-(4-(3-((trans)-4-(dimethylamino)cyclohexyl)-8-methylimidazo[1,5-a]pyrazin-1-yl)-2-methoxyphenyl)-4-methoxy-1-methyl-1H-indole-2-carboxamide] | ≤ 10 |
| COCCN(C)[C@H]1CC[C@@H](c2nc(-c3ccc(NC(=O)c4cc5c(OC)cccc5n4C)c(OC)c3)c3c(C)nccn32)CC1 [Example 26c, 4-methoxy-N-(2-methoxy-4-(3-((cis)-4-((2-methoxyethyl)(methyl)amino)cyclo-hexyl)-8-methylimidazo[1,5-a]pyrazin-1-yl)phenyl)-1-methyl-1H-indole-2-carboxamide] | ≤ 10 |
| COc1cc(-c2nc([C@H]3CC[C@@H](N4CCOCC4)CC3)n3ccnc(C)c23)ccc1NC(=O)c1cc2c(OC)cccc2n1C [Example 26d, 4-methoxy-N-(2-methoxy-4-(8-methyl-3-((cis)-4-morpholinocyclohexyl)imidazo[1,5-a]pyrazin-1-yl)phenyl)-1-methyl-1H-indole-2-carboxamide] | ≤ 10 |
| COc1cc(-c2nc([C@H]3CC[C@@H](N(C)C)CC3)n3ccnc(C)c23)ccc1NC(=O)c1cc2c(OC)cccc2n1C [Example 26e, N-(4-(3-((cis)-4-(dimethylamino)cyclohexyl)-8-methylimidazo[1,5-a]pyrazin-1-yl)-2-methoxyphenyl)-4-methoxy-1-methyl-1H-indole-2-carboxamide] | ≤ 10 |
| CCC[C@H](C)OC(=O)Nc1ccc(-c2nc([C@H]3CC[C@@H](N4CCN(C(C)=O)CC4)CC3)n3ccnc(C)c23)cc1OC [Example 26f, (S)-pentan-2-yl 4-(3-((cis)-4-(4-acetylpiperazin-1-yl)cyclohexyl)-8-methylimidazo[1,5-a]pyrazin-1-yl)-2-methoxyphenylcarbamate] | ≤ 10 |
| CCC[C@H](C)OC(=O)Nc1ccc(-c2nc([C@H]3CC[C@@H](N4CC(F)(F)C4)CC3)n3ccnc(C)c23)cc1OC [Example 26g, (S)-pentan-2-yl 4-(3-((cis)-4-(3,3-difluoroazetidin-1-yl)cyclohexyl)-8-methylimidazo[1,5-a]pyrazin-1-yl)-2-methoxyphenylcarbamate] | ≤ 10 |
| CCC[C@H](C)OC(=O)Nc1ccc(-c2nc([C@H]3C[C@H](N4CCN(C)CC4)C3)n3ccnc(C)c23)cc1OC [Example 27, (S)-Pentan-2-yl 2-methoxy-4-(8-methyl-3-((1r,3r)-3-(4-methylpiperazin-1-yl)cyclobutyl)imidazo[1,5-a]pyrazin-1-yl)phenylcarbamate] | ≤ 10 |
| CCC[C@H](C)OC(=O)Nc1ccc(-c2nc([C@H]3CC[C@H](N(CCOC)C(C)=O)CC3)n3ccnc(C)c23)cc1OC [Example 29, (S)-Pentan-2-yl 2-methoxy-4-(3-((trans)-4-(N-(2-methoxyethyl)acetamido)cyclohexyl)-8-methylimidazo[1,5-a]pyrazin-1-yl)phenylcarbamate] | ≤ 10 |
| COc1cc(-c2nc(C3CCN(C4CCOCC4)CC3)n3ccnc(C)c23)ccc1NC(=O)c1cc2c(OC)cccc2n1C [Example 30, 4-Methoxy-N-(2-methoxy-4-(8-methyl-3-(1-(tetrahydro-2H-pyran-4-yl)piperidin-4-yl)imidazo[1,5-a]pyrazin-1-yl)phenyl)-1-methyl-1H-indole-2-carboxamide] | ≤ 10 |
| CCC[C@H](C)OC(=O)Nc1ccc(-c2nc(N3CCN(C(C)=O)CC3)n3ccnc(C)c23)cc1OC [Example 31, (S)-Pentan-2-yl 4-(3-(4-acetylpiperazin-1-yl)-8-methylimidazo[1,5-a]pyrazin-1-yl)-2-methoxyphenylcarbamate] | ≤ 10 |
| COc1cc(-c2nc(N3CCN(C4CCN(C(C)=O)CC4)CC3)n3ccnc(C)c23)ccc1NC(=O)c1cc2c(OC)cccc2n1C [Example 32, N-(4-(3-(4-(1-Acetylpiperidin-4-yl)piperazin-1-yl)-8-methylimidazo[1,5-a]pyrazin-1-yl)-2-methoxyphenyl)-4-methoxy-1-methyl-1H-indole-2-carboxamide] | ≤ 10 |
| CCC[C@H](C)OC(=O)Nc1ccc(-c2nc([C@H]3CC[C@H](N4CCN(C)CC4)CC3)n3ccnc(C)c23)cc1OC [Example 33a, (S)-pentan-2-yl 2-methoxy-4-(8-methyl-3-((trans)-4-(4-methylpiperazin-1-yl)cyclohexyl)imidazo[1,5-a]pyrazin-1-yl)phenylcarbamate] | ≤ 10 |
| COc1cc(-c2nc([C@H]3CC[C@H](N4CCN(C)CC4)CC3)n3ccnc(C)c23)ccc1NC(=O)c1cc2ccccc2n1C [Example 33b, N-(2-methoxy-4-(8-methyl-3-((trans)-4-(4-methylpiperazin-1-yl)cyclohexyl)imidazo[1,5-a]pyrazin-1-yl)phenyl)-1-methyl-1H-indole-2-carboxamide 2,2,2-trifluoroacetate] | ≤ 10 |
| COc1cc(-c2nc([C@H]3CC[C@H](N4CCN(C(C)=O)CC4)CC3)n3ccnc(C)c23)ccc1NC(=O)c1cc2ccccc2n1C [Example 33c, N-(4-(3-((trans)-4-(4-acetylpiperazin-1-yl)cyclohexyl)-8-methylimidazo[1,5-a]pyrazin-1-yl)-2-methoxyphenyl)-1-methyl-1H-indole-2-carboxamide] | ≤ 10 |
| CCC[C@H](C)OC(=O)Nc1ccc(-c2nc([C@H]3CC[C@H](N4CCN(C(C)=O)CC4)CC3)n3ccnc(C)c23)cc1OC [Example 33d, (S)-pentan-2-yl 4-(3-((trans)-4-(4-acetylpiperazin-1-yl)cyclohexyl)-8-methylimidazo[1,5-a]pyrazin-1-yl)-2-methoxyphenylcarbamate] | ≤ 10 |
| COc1cc(-c2nc([C@@H]3CCN(C(=O)CN(C)C)C3)n3ccnc(C)c23)ccc1NC(=O)c1cc2c(OC)cccc2n1C [Example 33e, (R)—N-(4-(3-(1-(2-(dimethylamino)acetyl)pyrrolidin-3-yl)-8-methylimidazo[1,5-a]pyrazin-1-yl)-2-methoxyphenyl)-4-methoxy-1-methyl-1H-indole-2-carboxamide] | ≤ 10 |
